Reference: patent US20250051277A1, “DELIVERY OF THERAPEUTIC ALKALOID COMPOUNDS” (Sensorium Therapeutics, Inc., priority 2021, published 2025)
Read-outs that look alike come from different tables or passages of the source.

Key:
SERT = SERT (Homo sapiens (Human), UniProt P31645); type: cell-based; details: stable 5HTT cells, 30 minutes at 37° C.
[1] = type: physicochemical; details: SGF with pepsin, pH 1.5, 37° C., 0.5 mM
[2] = type: physicochemical; details: DI water, 25° C., 0.5 mM
[3] = 5 μM
[4] = 5 μM; remark: listed apart in the source
[5] = in vivo
Description: Male C57/BL6 mice were used to evaluate each compound, with n=3 mice/time point.
Animals were administered through intravenous route with solution formulation at 2 mg/kg dose. […] Following blood collection, immediately, animals were sacrificed, and vena-cava was cut open and blood was drained. […] Brain samples were collected from set of three mice at each time point. […] Brain samples were homogenized using 2 volumes of ice-cold PBS (pH-7.4) of brain weight. […] Concentrations of compound (or compound and metabolite) in mouse plasma and brain samples were determined by fit for purpose LC-MS/MS method.

[6] = Description: Brain samples were homogenized with PBS (W/V, 1:3). Plasma/brain samples were mixed with acetonitrile containing internal standard. The samples were vortexed then centrifuged at 4 degrees Celsius for 15 minutes. The supernatant was diluted with water (1:2 V/V) and analyzed by LC/MS/MS for quantitative analysis. […] Area under the curve (AUC) was calculated and divided by dose to account for molecular weight difference of prodrug and metabolite (AUC/D).
[7] = Pharmacokinetics of 043 and 001 in mice after oral 043 (75 mg/kg); type: in vivo, male C57BL/6 mice
Description: Total twelve male mice were used in this study. […] The formulation vehicle used was normal saline.
The plasma and brain concentration-time data of 043 and 001 was used for the pharmacokinetic analysis.
The extraction procedure for plasma/brain samples and the spiked plasma/brain calibration standards were identical:
A 25 μL of study sample plasma/brain (dilution applied to some samples) or spiked plasma calibration standard was added to individual pre-labeled micro-centrifuge tubes followed by 100 μL of internal standard prepared in acetonitrile (Glipizide-500 ng/mL) was added except for blank, where 100 μL of acetonitrile was added. Samples were vortexed for 5 minutes. Samples were centrifuged for 10 minutes at a speed of 4000 rpm at 4° C. Following centrifugation, 100 μL of clear supernatant was transferred in 96 well plates and analyzed using LC-MS/MS.

[8] = analyte = label, single oral administration of 043, 75 mg/kg, male C57BL/6 mice
[9] = brain, analyte = label, single oral administration of 043, 75 mg/kg, male C57BL/6 mice
[10] = plasma, analyte = label, single oral administration of 043, 75 mg/kg, male C57BL/6 mice

Row | Compound | IC50 (SERT) [nM] | Condition 1 Conversion (%) ([1]; time 1 min) | Condition 1 Conversion (%) ([1]; time 5 min) | Condition 1 Conversion (%) ([1]; time 30 min) | Condition 1 Conversion (%) ([1]; time 1 h) | Condition 1 Conversion (%) ([1]; time 4 h) | Condition 1 Conversion (%) ([1]; time 24 h) | other results
1 | COc1ccc(C23CCN(C)C2CC2(CC3)OCCO2)cc1OC (stereo not drawn) [Compound 044] | > 1000 | 0 | 0 | 0 | 0 | 0 | 0 | –
2 | COc1ccc([C@]23CCN(C)[C@H]2CC2(CC3)SCCS2)cc1OC [Compound 045, (3′aS,7′aS)-3′a-(3,4-dimethoxyphenyl)-1′-methyl-spiro[1,3-dithiolane-2,6′-2,3,4,5,7,7a-hexahydroindole]] | > 1000 | 0 | 0 | 0 | 0 | 0 | 0 | –
3 | COc1ccc([C@@]23CCC(OC(=O)CC(C)C)=C[C@@H]2N(C)CC3)cc1OC [Compound 334, [(3aS,7aS)-3a-(3,4-dimethoxyphenyl)-1-methyl-3,4,5,7a-tetrahydro-2H-indol-6-yl]3-methylbutanoate] | – | 0 | 0 | 0 | 0 | 0 | 0 | Condition 2 Conversion (%) ([2]; time 1 min): 0%; Condition 2 Conversion (%) ([2]; time 5 min): 0%; Condition 2 Conversion (%) ([2]; time 30 min): 0%; Condition 2 Conversion (%) ([2]; time 1 h): 0%; Condition 2 Conversion (%) ([2]; time 4 h): 0%; Condition 2 Conversion (%) ([2]; time 24 h): 0%; Mouse Plasma Compound 001 (%) ([3]; 15 min): 73.1%; Mouse Plasma Compound 001 (%) ([3]; 30 min): 70.9%; Mouse Plasma Compound 001 (%) ([3]; 60 min): 68.8%; Mouse Plasma Compound 001 (%) ([3]; 120 min): 70.0%; Mouse Plasma Compound 001 (%) ([3]; 240 min): 68.5%; Human Plasma Compound 001 (%) ([4]; 15 min): 63.6%; Human Plasma Compound 001 (%) ([4]; 30 min): 63.7%; Human Plasma Compound 001 (%) ([4]; 60 min): 65.4%; Human Plasma Compound 001 (%) ([4]; 120 min): 65.1%; Human Plasma Compound 001 (%) ([4]; 240 min): 63.8%; quantifiable levels of 001 in brain up to ([5]; male, C57BL/6, mouse): 2 h; quantifiable levels of 001 in plasma up to ([5]; male, C57BL/6, mouse): 60 min; Plasma levels of 001 ([5]; mouse, iv, 2 mg/kg): not detectable
4 | CO/N=C1\CC[C@@]2(c3ccc(OC)c(OC)c3)CCN(C)[C@H]2C1 [Compound 038, (E,3aS,7aS)-3a-(3,4-dimethoxyphenyl)-N-methoxy-1-methyl-2,3,4,5,7,7a-hexahydroindol-6-imine] | < 50 | 0 | 0 | 1.3 | 11.9 | 31.3 | 49.9 | –
5 | CO/N=C1/CC[C@@]2(c3ccc(OC)c(OC)c3)CCN(C)[C@H]2C1 [Compound 035, (Z, 3aS,7aS)-3a-(3,4-dimethoxyphenyl)-N-methoxy-1-methyl-2,3,4,5,7,7a-hexahydroindol-6-imine] | < 50 | 0 | 0 | 5.4 | 13.1 | 35.2 | 38.9 | –
6 | CCC(C)CC(=O)OC1=C[C@@H]2N(C)CC[C@]2(c2ccc(OC)c(OC)c2)CC1 (stereo partly drawn) [Compound 316, [(3aS,7aS)-3a-(3,4-dimethoxyphenyl)-1-methyl-3,4,5,7a-tetrahydro-2H-indol-6-yl]3-methyl pentanoate] | – | – | – | – | – | – | – | conversion of prodrug to 001 in vivo ([6]; 2 mg/kg iv in rat): converts to 001 in vivo in rat; 001 brain levels quantifiable up to ([6]; rat, in vivo): 3 h
7 | COc1ccc([C@@]23CCN(C)[C@@H]2CC2(CC3)SCCS2)cc1OC [Compound 046, (3′aR,7′aR)-3′a-(3,4-dimethoxyphenyl)-1′-methyl-spiro[1,3-dithiolane-2,6′-2,3,4,5,7,7a-hexahydroindole]] | 100 to 500 | 0 | 0 | 0 | 0 | 0 | 0 | –
8 | COc1ccc([C@]23CCN(C)[C@H]2CC2(CC3)OCCO2)cc1OC [Compound 043] | < 50 | 0 | 0 | 0 | 0 | 0 | 0 | conversion of prodrug to 001 in vivo ([7]; 75 mg/kg po in mice): efficiently converts to 001 in vivo; Brain concentrations quantifiable up to [7, 8]: 4 h; brain exposure-Kp [7, 8]: < 1; AUClast [7, 9]: 1787.23 ng·h/mL; Cmax [7, 9]: 2684.81 ng/mL; Tmax [7, 9]: 30 min; AUClast [7, 10]: 2555.07 ng·h/mL; Cmax [7, 10]: 3392.53 ng/mL; Tmax [7, 10]: 30 min
